# Active and inactive are the calls of the source. The rule behind the calls is not given here.
# T1: Tyrosinase (Agaricus bisporus, UniProt O42713)
# T1 sequence (O42713 whole entry): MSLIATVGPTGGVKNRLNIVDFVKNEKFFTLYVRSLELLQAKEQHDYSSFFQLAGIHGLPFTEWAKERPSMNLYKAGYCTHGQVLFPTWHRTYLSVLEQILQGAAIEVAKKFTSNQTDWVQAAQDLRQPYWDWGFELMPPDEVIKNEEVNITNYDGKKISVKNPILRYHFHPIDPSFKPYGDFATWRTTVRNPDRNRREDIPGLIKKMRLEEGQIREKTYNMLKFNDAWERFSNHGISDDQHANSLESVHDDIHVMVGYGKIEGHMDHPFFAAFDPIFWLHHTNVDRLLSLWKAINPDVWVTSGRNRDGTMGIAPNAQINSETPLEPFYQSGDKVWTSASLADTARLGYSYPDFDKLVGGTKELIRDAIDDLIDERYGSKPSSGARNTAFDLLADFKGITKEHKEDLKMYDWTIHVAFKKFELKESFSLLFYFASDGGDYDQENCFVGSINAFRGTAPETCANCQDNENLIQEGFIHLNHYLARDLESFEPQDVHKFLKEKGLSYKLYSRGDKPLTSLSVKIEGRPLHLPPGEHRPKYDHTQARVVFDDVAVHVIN
# T2: Tyrosinase (Agaricus bisporus) (UniProt O42713)
# T2 sequence (whole entry): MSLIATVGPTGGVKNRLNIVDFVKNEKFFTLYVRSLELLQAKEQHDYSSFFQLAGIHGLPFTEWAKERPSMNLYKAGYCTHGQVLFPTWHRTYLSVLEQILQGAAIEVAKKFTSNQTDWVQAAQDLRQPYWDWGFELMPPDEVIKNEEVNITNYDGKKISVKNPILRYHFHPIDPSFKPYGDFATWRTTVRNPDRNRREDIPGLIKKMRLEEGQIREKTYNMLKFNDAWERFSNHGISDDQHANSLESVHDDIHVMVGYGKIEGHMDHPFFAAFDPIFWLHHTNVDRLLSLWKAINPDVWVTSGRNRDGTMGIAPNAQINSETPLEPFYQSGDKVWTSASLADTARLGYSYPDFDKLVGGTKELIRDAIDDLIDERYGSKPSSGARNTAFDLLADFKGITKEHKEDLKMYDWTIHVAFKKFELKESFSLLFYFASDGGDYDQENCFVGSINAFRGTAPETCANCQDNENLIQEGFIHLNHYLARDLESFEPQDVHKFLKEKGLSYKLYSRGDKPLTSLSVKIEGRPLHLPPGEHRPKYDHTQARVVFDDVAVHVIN
# Compound: COc1ccc(C(=O)N/N=C/c2ccc(Cl)cc2)cc1OC
# Assay: Competitive inhibition of mushroom tyrosinase assessed as reduction in dopachrome formation by measuring substrate Vmax at 50 uM using L-DOPA as substrate preincubated for 20 mins followed by substrate addition by spectrophotometry based Lineweaver-Burk plot analysis (reference value: […] mM/min)
# Conditions: Agaricus bisporus
row,Molecule,Vmax [mM/min]
1,"Tyrosinase (Agaricus bisporus), O42713 (protein) MSLIATVGPTGGVKNRLNIVDFVKNEKFFTLYVRSLELLQAKEQHDYSSFFQLAGIHGLPFTEWAKERPSMNLYKAGYCTHGQVLFPTWHRTYLSVLEQILQGAAIEVAKKFTSNQTDWVQAAQDLRQPYWDWGFELMPPDEVIKNEEVNITNYDGKKISVKNPILRYHFHPIDPSFKPYGDFATWRTTVRNPDRNRREDIPGLIKKMRLEEGQIREKTYNMLKFNDAWERFSNHGISDDQHANSLESVHDDIHVMVGYGKIEGHMDHPFFAAFDPIFWLHHTNVDRLLSLWKAINPDVWVTSGRNRDGTMGIAPNAQINSETPLEPFYQSGDKVWTSASLADTARLGYSYPDFDKLVGGTKELIRDAIDDLIDERYGSKPSSGARNTAFDLLADFKGITKEHKEDLKMYDWTIHVAFKKFELKESFSLLFYFASDGGDYDQENCFVGSINAFRGTAPETCANCQDNENLIQEGFIHLNHYLARDLESFEPQDVHKFLKEKGLSYKLYSRGDKPLTSLSVKIEGRPLHLPPGEHRPKYDHTQARVVFDDVAVHVIN",0.15

# Compound: COc1ccc(C(=O)N/N=C/c2ccc(Cl)cc2)cc1OC
# Assay: Competitive inhibition of mushroom tyrosinase assessed as reduction in dopachrome formation by measuring substrate Km at 50 uM using L-DOPA as substrate preincubated for 20 mins followed by substrate addition by spectrophotometry based Lineweaver-Burk plot analysis (reference value: […] mM)
# Conditions: Agaricus bisporus
row,Molecule,Km [mM]
1,"Tyrosinase (Agaricus bisporus), O42713 (protein) MSLIATVGPTGGVKNRLNIVDFVKNEKFFTLYVRSLELLQAKEQHDYSSFFQLAGIHGLPFTEWAKERPSMNLYKAGYCTHGQVLFPTWHRTYLSVLEQILQGAAIEVAKKFTSNQTDWVQAAQDLRQPYWDWGFELMPPDEVIKNEEVNITNYDGKKISVKNPILRYHFHPIDPSFKPYGDFATWRTTVRNPDRNRREDIPGLIKKMRLEEGQIREKTYNMLKFNDAWERFSNHGISDDQHANSLESVHDDIHVMVGYGKIEGHMDHPFFAAFDPIFWLHHTNVDRLLSLWKAINPDVWVTSGRNRDGTMGIAPNAQINSETPLEPFYQSGDKVWTSASLADTARLGYSYPDFDKLVGGTKELIRDAIDDLIDERYGSKPSSGARNTAFDLLADFKGITKEHKEDLKMYDWTIHVAFKKFELKESFSLLFYFASDGGDYDQENCFVGSINAFRGTAPETCANCQDNENLIQEGFIHLNHYLARDLESFEPQDVHKFLKEKGLSYKLYSRGDKPLTSLSVKIEGRPLHLPPGEHRPKYDHTQARVVFDDVAVHVIN",5.88

# Target: T1, Tyrosinase
# Assay: Inhibition of mushroom tyrosinase assessed as reduction in dopachrome formation using L-DOPA as substrate preincubated for 20 mins followed by substrate addition by spectrophotometry
# Conditions: not given
row,Molecule,IC50 [µM]
1,COc1ccc(C(=O)N/N=C/c2ccc(O)cc2)cc1OC,> 50
2,COc1ccc(C(=O)N/N=C/c2ccc([N+](=O)[O-])cc2)cc1OC,> 50
3,COc1cc(/C=N/NC(=O)c2ccc(OC)c(OC)c2)ccc1O,> 50
4,COc1ccc(C(=O)N/N=C/c2ccc(Br)cc2)cc1OC,> 50
5,CCOc1cc(/C=N/NC(=O)c2ccc(OC)c(OC)c2)ccc1O,> 50
6,COc1ccc(C(=O)N/N=C/c2ccc(N(C)C)cc2)cc1OC,> 50
7,COc1ccc(C(=O)N/N=C/c2cc(OC)c(O)c(OC)c2)cc1OC,> 50
8,COc1ccc(/C=N/NC(=O)c2ccc(OC)c(OC)c2)cc1OC,> 50

# Now from value to molecule:
row,IC50 [µM],Molecule
1,> 50,COc1ccc(C(=O)N/N=C/c2cccc([N+](=O)[O-])c2)cc1OC
2,> 50,COc1ccc(/C=N/NC(=O)c2ccc(OC)c(OC)c2)cc1
3,20.6,COc1ccc(C(=O)N/N=C/c2cccc(O)c2O)cc1OC
4,28.3,COc1ccc(C(=O)N/N=C/c2ccc(OC(C)=O)c(OC)c2)cc1OC
5,37.4,COc1ccc(C(=O)N/N=C/c2cc(OC)c(OC)c(OC)c2)cc1OC
6,31.5,COc1ccc(C(=O)N/N=C/c2ccc(O)cc2O)cc1OC
7,35.2,COc1ccccc1/C=N/NC(=O)c1ccc(OC)c(OC)c1
8,19.7,COc1ccc(C(=O)N/N=C/c2ccc(Cl)cc2)cc1OC

# Target: T2, Tyrosinase (Agaricus bisporus)
# Assay: Competitive inhibition of mushroom tyrosinase assessed as reduction in dopachrome formation at 50 uM using L-DOPA as substrate preincubated for 20 mins followed by substrate addition by spectrophotometry based Lineweaver-Burk plot analysis
# Conditions: not given
row,inhibition,Molecule
1,Active,COc1ccc(C(=O)N/N=C/c2ccc(Cl)cc2)cc1OC
